Source: paper PMC12560828, “Chemical structure drives developmental toxicity of alkyl-substituted naphthalenes in zebrafish” (Environment international, 2025)

Tests used:
[1] = tested on: zebrafish larvae, 120 hpf; assay: Larval photomotor response (LPR) assay after vial exposure; assay type: in vivo, Danio rerio; conditions: LPR
Procedure: (§1) When embryos were 6 hpf they were bleached in groups of 1000 or less to limit bacterial growth in sealed vials. Embryos were placed in a strainer for transfer between solutions in 500 mL containers. […] Pools of eight embryos were placed into 2 mL clear glass screw cap exposure vials with polyvinyl-faced pulp liner (Avantar Radnor, PA, United States) using a glass Pasteur pipette. Excess EM was removed, and 2 mL of fresh EM was immediately added. A total of 10 uL of 200x working stock (in DMSO) was added to each vial, then immediately capped and inverted three times to mix. […] Vials were loaded into a custom 3D printed vial holder for slow end-over-end rotation in a dark 28 °C incubator overnight. […] At 24 hpf, embryos were removed from exposure vials and singulated into 96-well plates loaded with 100 μL chemical-free EM. Each exposure vial group was maintained in plate columns. After loading into 96-well plates, embryos were assessed for 24-hour mortality. For the remainder of the exposure, plates were kept stationary at 28 °C in the dark, until 120 hpf when morphology screening and the larval photo motor response (LPR) assay were conducted, section 2.3.2 and section 2.3.3, respectively.
Each treatment group was replicated over four vials, resulting in 32 embryos per treatment, split over two replicate 96-well plates per chemical. […] Vial groups of plated larvae were tracked to assess the impact of the vial on the results. All reported concentrations were nominal water concentrations and are included in SI-T4.
The LPR assay was conducted at 120 hpf. […] Larval movement was tracked throughout minutes 6–24. Animals dead or morphologically abnormal were excluded from the analysis, and if more than 30 % of the wells in a treatment group were excluded, the treatment was removed.
Movement values were binned into 6s intervals, log normalized and used to calculate area under the curve (AUC). AUC values from the first cycle after calibration were used to calculate the LEL for each period (light and dark).

[2] = tested on: early life stage zebrafish (Danio rerio) embryos; assay: Developmental toxicity morphology screen, sealed rotating vial exposure; assay type: in vivo; set-up: bmd, MO24 / bmd, MORT / bmd, ANY_ / bmd, AXIS / bmd, CRAN / bmd, EDEM / bmd, LTRK / bmd, MUSC / bmdL, ANY_ / bmdU, ANY_ / bmdL, AXIS / bmdU, AXIS / bmdL, CRAN / bmdU, CRAN / bmdL, EDEM / bmdU, EDEM / bmdL, LTRK / bmdU, LTRK / bmdL, MO24 / bmdU, MO24 / bmdL, MORT / bmdU, MORT: unit not given here; conditions: for BMC50 Any effect: Fig. 2 heatmap, exposure 6-24 hpf in vials, summary of all endpoints; for any effect BMD50: SI-T5
Procedure: as §1
Each treatment group was replicated over four vials, resulting in 32 embryos per treatment, split over two replicate 96-well plates per chemical. […] All reported concentrations were nominal water concentrations and are included in SI-T4.
At 24 hpf embryos were assessed for mortality (MO24). At 120 hpf embryos were assessed for abnormality in […] morphological endpoints: mortality (MORT), edemas (EDEM), bent axis (AXIS), touch response (TCHR), craniofacial (CRAN), muscular/cardiovascular (MUSC), lower trunk (LRTK), brain (BRAN), skin (SKIN), and notochord malformations (NC). Morphological assessments were made by a team of three to four individuals. The team was blinded to the identity, plate layout, and concentrations of the chemicals, thereby minimizing bias in morphological screening assessment. To ensure the assessments were consistent, concentration–response reproducibility of a parathion ethyl quality control plate was performed along with each experimental exposure set up. Details of all measured endpoints can be found at Developmental toxicity zebrafish phenotype atlas. […] Each endpoint was scored as a binary presence/absence and scores were compiled into an “Any effect” endpoint, the presence of abnormality in any individual endpoint.
The Any effect percent was used to calculate the BMC50, 50 % change relative to the background for each endpoint and chemical. All values were reported as the nominal exposure concentration.

[3] = period dark, round 1, conc 3.125
[4] = period dark, round 1, conc 6.25
[5] = period dark, round 1, conc 12.5
[6] = period light, round 1, conc 3.125
[7] = period light, round 1, conc 6.25
[8] = period light, round 1, conc 12.5

Cc1ccc2ccccc2c1 [2-methylnaphthalene] was tested, and the fold_change [1, 3] was 0.03896, the fold_change [1, 4] was -0.06284 and the fold_change [1, 5] was 0.2024. It also gave a fold_change ([1]; period dark, round 1, conc 25) of 0.07059, a fold_change ([1]; period dark, round 1, conc 50) of -0.2156 and a fold_change [1, 6] of -0.3603. For the same compound, the fold_change [1, 7] was -0.05115, the fold_change [1, 8] was 0.6486 and the fold_change ([1]; period light, round 1, conc 25) was 0.2057. The fold_change ([1]; period light, round 1, conc 50) was 0.2253 and the “morphological effects (BMC50 for any morphological endpoint)” value ([2]; 0-50 μM, result in words) was “no morphological BMC50 values”.
Compound CCc1ccc2cc(CC)ccc2c1 [2,6-diethylnaphthalene] has a fold_change [1, 3] of 0.178, a fold_change [1, 4] of -0.04909 and a fold_change [1, 5] of -0.5724. The fold_change ([1]; period dark, round 1, conc 25) was -0.5473, the fold_change [1, 6] was -0.07519 and the fold_change [1, 7] was 0.5876. For the same compound, the fold_change [1, 8] was 0.2476, the fold_change ([1]; period light, round 1, conc 25) was 0.1223 and the “BMC50 AXIS (curved or bent body axis at 120 hpf)” value ([2]; Fig. 2, nominal concentration) was 46.9 µM. For the same compound, the “BMC50 MO24 (mortality at 24 hpf)” value ([2]; Fig. 2, nominal concentration) was 38.1 µM, the “BMC50 MORT (mortality at 120 hpf)” value ([2]; Fig. 2, nominal concentration) was 39.2 µM and the “BMC50 Any effect” value ([2]; nominal concentration) was 18.8 µM. The “any effect BMD50” value [2] was 18.77 µM, the “bmd, MO24” value ([2]; benchmark dose, endpoint MO24) was 38.0576 and the “bmd, MORT” value ([2]; benchmark dose, endpoint MORT) was 39.1942. The “bmd, ANY_” value ([2]; benchmark dose, morphology endpoint ANY_ (any effect)) was 18.7673 and the “bmd, AXIS” value ([2]; benchmark dose, morphology endpoint AXIS) was 46.8649.
Cc1ccc2c(C)c(C)ccc2c1C [1,2,5,6-tetramethylnaphthalene] gave a fold_change [1, 3] of -0.03133, a fold_change [1, 4] of -0.4187 and a fold_change [1, 5] of -0.4196. For the same compound, the fold_change ([1]; period dark, round 1, conc 25) was -0.1628, the fold_change ([1]; period dark, round 1, conc 50) was -0.3813 and the fold_change [1, 6] was 0.2549. For the same compound, the fold_change [1, 7] was -0.3197, the fold_change [1, 8] was 0.8672 and the fold_change ([1]; period light, round 1, conc 25) was -0.1531. The fold_change ([1]; period light, round 1, conc 50) was 0.1565.
With CCCCc1ccc2ccccc2c1 [2-butylnaphthalene] the fold_change [1, 3] was -0.7788, the fold_change [1, 4] was -1.395 and the fold_change [1, 5] was -2.279. For the same compound, the fold_change [1, 6] was 0.2651, the fold_change [1, 7] was -0.6707 and the fold_change [1, 8] was 0.432. The “BMC50 AXIS (curved or bent body axis at 120 hpf)” value ([2]; Fig. 2, nominal concentration) was 31.7 µM, the “BMC50 CRAN (craniofacial malformation at 120 hpf)” value ([2]; Fig. 2, nominal concentration) was 32.3 µM and the “BMC50 EDEM (pericardial and/or yolk sac edema at 120 hpf)” value ([2]; Fig. 2, nominal concentration) was 37.1 µM. The “BMC50 LTRK (lower trunk and/or caudal fin at 120 hpf)” value ([2]; Fig. 2, nominal concentration) was 32.6 µM, the “BMC50 MO24 (mortality at 24 hpf)” value ([2]; Fig. 2, nominal concentration) was 45.9 µM and the “BMC50 MORT (mortality at 120 hpf)” value ([2]; Fig. 2, nominal concentration) was 29.2 µM. For the same compound, the “BMC50 Any effect” value ([2]; nominal concentration) was 13.8 µM, the “any effect BMD50” value [2] was 13.76 µM and the “bmd, MO24” value ([2]; endpoint MO24, benchmark dose) was 45.9226. For the same compound, the “bmdL, MO24” value ([2]; endpoint MO24, lower limit of benchmark dose) was 34.5575, the “bmdU, MO24” value ([2]; endpoint MO24, upper limit of benchmark dose) was 71.8256 and the “bmd, MORT” value ([2]; endpoint MORT, benchmark dose) was 29.2083. The “bmdL, MORT” value ([2]; endpoint MORT, lower limit of benchmark dose) was 24.1073, the “bmdU, MORT” value ([2]; endpoint MORT, upper limit of benchmark dose) was 36.5916 and the “bmd, ANY_” value ([2]; morphology endpoint ANY_, benchmark dose) was 13.7563. For the same compound, the “bmdL, ANY_” value ([2]; morphology endpoint ANY_, lower limit of benchmark dose) was 11.3562, the “bmdU, ANY_” value ([2]; morphology endpoint ANY_, upper limit of benchmark dose) was 16.7056 and the “bmd, AXIS” value ([2]; morphology endpoint AXIS, benchmark dose) was 31.7332. The “bmdL, AXIS” value ([2]; morphology endpoint AXIS, lower limit of benchmark dose) was 20.8074, the “bmdU, AXIS” value ([2]; morphology endpoint AXIS, upper limit of benchmark dose) was 68.8189 and the “bmd, CRAN” value ([2]; morphology endpoint CRAN, benchmark dose) was 32.2639. The “bmdL, CRAN” value ([2]; morphology endpoint CRAN, lower limit of benchmark dose) was 21.7357, the “bmdU, CRAN” value ([2]; morphology endpoint CRAN, upper limit of benchmark dose) was 64.257 and the “bmd, EDEM” value ([2]; morphology endpoint EDEM, benchmark dose) was 37.0933. For the same compound, the “bmdL, EDEM” value ([2]; morphology endpoint EDEM, lower limit of benchmark dose) was 25.0511, the “bmdU, EDEM” value ([2]; morphology endpoint EDEM, upper limit of benchmark dose) was 73.9212 and the “bmd, LTRK” value ([2]; morphology endpoint LTRK, benchmark dose) was 32.6419. The “bmdL, LTRK” value ([2]; morphology endpoint LTRK, lower limit of benchmark dose) was 22.6339 and the “bmdU, LTRK” value ([2]; morphology endpoint LTRK, upper limit of benchmark dose) was 59.8583.
